Results taken from PMC8359193, “Summary of reference chemicals evaluated by the fish short‐term reproduction assay, OECD TG229, using Japanese Medaka, Oryzias latipes” (Journal of Applied Toxicology, 2021).

Assays:
medaka ARβ (mARβ) = medaka ARβ (mARβ) (Oryzias latipes, UniProt D1MV73); assay: Medaka ARβ reporter gene assay (RGA), agonist assay, HepG2 cells; type: cell-based, Japanese medaka (Oryzias latipes); conditions: mARβ RGA agonist assay; ND = no significant response even at the highest assay concentration (in parentheses)
Sequence of medaka ARβ (mARβ) (D1MV73 entry or part of it): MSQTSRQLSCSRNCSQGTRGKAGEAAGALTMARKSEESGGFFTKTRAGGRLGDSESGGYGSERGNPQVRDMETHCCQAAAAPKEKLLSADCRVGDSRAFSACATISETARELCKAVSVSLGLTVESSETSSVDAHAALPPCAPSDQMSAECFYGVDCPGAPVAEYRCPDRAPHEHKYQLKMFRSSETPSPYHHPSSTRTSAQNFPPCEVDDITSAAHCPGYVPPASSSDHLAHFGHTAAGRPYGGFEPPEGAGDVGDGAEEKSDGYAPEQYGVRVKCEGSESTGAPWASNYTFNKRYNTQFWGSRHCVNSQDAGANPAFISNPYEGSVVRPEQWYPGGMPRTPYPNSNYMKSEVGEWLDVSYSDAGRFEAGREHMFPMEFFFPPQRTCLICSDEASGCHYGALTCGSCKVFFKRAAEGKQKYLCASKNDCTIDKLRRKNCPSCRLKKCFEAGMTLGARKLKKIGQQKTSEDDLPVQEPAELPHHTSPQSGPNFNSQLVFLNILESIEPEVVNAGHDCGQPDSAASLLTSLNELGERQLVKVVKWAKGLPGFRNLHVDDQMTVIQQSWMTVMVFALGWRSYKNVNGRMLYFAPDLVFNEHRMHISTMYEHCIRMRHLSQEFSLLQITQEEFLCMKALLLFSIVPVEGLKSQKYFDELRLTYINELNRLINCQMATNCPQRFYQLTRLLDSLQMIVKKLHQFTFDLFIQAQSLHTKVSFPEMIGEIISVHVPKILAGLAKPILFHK
Protocol: To support interpretation of the biological effects observed in the FSTRA studies, in vitro RGAs using medaka Esr1 (mEsr1) and medaka ARβ (mARβ) were performed for the 16 test chemicals.
For the assays, human liver cancer cell line, HepG2, was used as the host cells, and mARβ/pcDNA3.1, MMTV‐Luc, and pRL‐TK‐Rlu were used as mARβ expression vector, reporter vector, and internal control vector, respectively.
(§1) Effect concentrations, that is, EC50 (a half maximal effective concentration) in the agonist assay and IC50 (a half maximal inhibitory concentration) in the antagonist assay, were estimated by nonlinear curve fitting (e.g., three parameters logistic regression curve) using GraphPad Prism (GraphPad Software Inc., La Jolla, CA, USA).

medaka Esr1 (mEsr1) = target: T1, medaka Esr1 (mEsr1) (Oryzias latipes, UniProt P50241); assay: Medaka Esr1 reporter gene assay (RGA), antagonist assay with 1 nM E2, HEK293 cells; type: cell-based, Japanese medaka (Oryzias latipes); conditions: mEsr1 RGA antagonist assay, 1 nM E2-mediated transactivation; ND = no significant response even at the highest assay concentration (in parentheses); read-out: Antagonist assay, IC50, Medaka Esr1
T1 construct: expressed in transfected cells; host or cells: HEK293 (human embryonic kidney cells), transient transfection with FuGENE HD
T1 sequence (P50241 1-620): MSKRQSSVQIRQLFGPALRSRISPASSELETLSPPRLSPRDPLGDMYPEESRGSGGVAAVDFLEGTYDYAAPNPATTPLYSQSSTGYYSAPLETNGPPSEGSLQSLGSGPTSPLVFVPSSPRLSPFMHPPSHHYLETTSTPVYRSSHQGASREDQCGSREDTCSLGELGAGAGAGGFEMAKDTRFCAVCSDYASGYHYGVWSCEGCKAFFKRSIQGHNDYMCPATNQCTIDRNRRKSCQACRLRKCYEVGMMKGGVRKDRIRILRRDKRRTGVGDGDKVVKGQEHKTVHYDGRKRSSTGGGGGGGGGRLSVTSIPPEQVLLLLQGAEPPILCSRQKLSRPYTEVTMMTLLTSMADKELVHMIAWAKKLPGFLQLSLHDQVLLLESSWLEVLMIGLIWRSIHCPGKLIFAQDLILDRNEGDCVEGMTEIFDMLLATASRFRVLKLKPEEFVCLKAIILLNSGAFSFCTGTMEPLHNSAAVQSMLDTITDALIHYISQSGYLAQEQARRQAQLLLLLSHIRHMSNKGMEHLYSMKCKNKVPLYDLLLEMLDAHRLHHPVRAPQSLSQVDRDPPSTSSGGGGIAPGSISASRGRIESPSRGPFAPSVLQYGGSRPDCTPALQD
Protocol: To support interpretation of the biological effects observed in the FSTRA studies, in vitro RGAs using medaka Esr1 (mEsr1) and medaka ARβ (mARβ) were performed for the 16 test chemicals. In the present study, Esr1 and ARβ, which are ancestral subtypes among Esrs and ARs in Japanese medaka, were selected based on the phylogenetical analyses of Esr and AR with each receptor RGAs (Ogino et al., [2016], [2018]; Tohyama et al., [2015]).
The mEsr1 RGA consisting of agonist and antagonist assays were performed according to the methods previously reported (Katsu et al., [2010]; Lange et al., [2012]; Miyagawa et al., [2014]). Briefly, human embryonic kidney cells 293 (HEK293), precultured, were seeded in 96‐well plates at 15,000 cells/well with 200 μl of culture medium, phenol‐red‐free Dulbecco's Modified Eagle's medium (ThermoFisher Scientific K.K., Tokyo, Japan) supplemented with 2‐mM L‐glutamine and 10% charcoal/dextran‐treated fetal bovine serum (Hyclone, UT, USA), and then incubated for 24 h in 5% CO2 at 37°C. After the 24‐h incubation, 20 μl of test medium containing 40 ng of medaka Esr1/pcDNA3.1, 80 ng of ERE‐TK‐Luc, and 20 ng of pRL‐TK‐Rlu and 1.2 μL of transfection reagent FuGENE HD (Promega, WI, USA) were added into each well. The assay plates were incubated for another 4 h in order to transfect the three vectors into the HEK293 cells. After the vectors were successfully transfected, in agonist assay, 24 μl of concentrated test chemical solution was applied to the test medium in the plate wells. […] After chemical treatment for 40 h, luciferase activity of the cells was measured, and the promoter activity was calculated as firefly (Photinus pyralis)‐/sea pansy (Renilla reniformis)‐luciferase activity in each well. The luciferase activities were quantified by a chemiluminescence assay with Dual‐Luciferase Reporter Assay System (Promega) in accordance with the manufacturer's instructions, and luminescence intensity of firefly and sea pansy luciferin was measured using a luminometer, TriStar LB941 (Berthold Technology, Oak Ridge, TN, USA).
as §1

Work on `C[C@]12CC(=O)[C@H]3[C@@H](CCC4=CC(=O)CC[C@@]43C)[C@@H]1CC[C@@H]2O` [11KT, 11‐ketotestosterone] yielded an EC50 (medaka ARβ (mARβ)) of 2.7 nM and an IC50 (medaka Esr1 (mEsr1)) of over 100000 nM.
